Laboratory results published in patent EP3095787A1, “[…] ACTIVE COMPOUNDS AS DAG-LIPASE INHIBITORS” (Universiteit Leiden, priority 2015, dated 2016).

How the values were obtained:
recombinant human MAGL = molecular target: T1, recombinant human MAGL (Homo sapiens, UniProt Q99685); assay: MAGL assay (glycerol detection, 2-AG as substrate); assay type: biochemical
T1 construct: expressed in transfected cells; membranes overexpressing MAGL
T1 sequence (Q99685 1-303): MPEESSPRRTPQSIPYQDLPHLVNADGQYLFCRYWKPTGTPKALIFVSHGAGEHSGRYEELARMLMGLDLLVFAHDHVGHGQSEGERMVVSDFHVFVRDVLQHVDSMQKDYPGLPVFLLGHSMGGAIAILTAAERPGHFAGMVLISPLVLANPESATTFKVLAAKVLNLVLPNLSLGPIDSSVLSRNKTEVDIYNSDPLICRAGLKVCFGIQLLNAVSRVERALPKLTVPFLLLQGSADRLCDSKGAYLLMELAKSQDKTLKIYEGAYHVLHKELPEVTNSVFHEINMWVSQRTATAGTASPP
Excerpt: This methodology allows for a more accurate quantification avoiding band overlap (as observed with gel-based assay) and allows screening over a broader range of specified serine hydrolases. Equal isotopic labeling and detection of light and medium peptides from proteins targeted by both ABPs (Figure 2G) were validated. Next, to investigate the selectivity of inventive compound 25 in this chemoproteomic assay was set out. […] In addition, the inventors tested compound 25 in biochemical assays using recombinant human MAGL and in a cannabinoid CB1 receptor radioligand displacement assay. A significant interaction ([…]) with these proteins of the endocannabinoid system could not be found. The CB1 displacement assays were performed as described below.
MAGL assay was performed as described below. Standard assays were performed under similar conditions as for the glycerol detection besed DAGL-α activity assay , but at a final protein concentration of 1.5 µg/mL (0.3 µg MAGL-overexpressing membranes per well) and with 2-arachidonoylglycerol (2-AG) as the substrate. 2-AG was directly added from a stock solution in acetonitrile and no Triton X-100 was added. Fluorescence was measured in 5 min intervals for 60 min. Final assay concentrations: 0.2 U/mL GK, GPO and HRP, 0.125 mM ATP, 10 µM Amplifu™Red, 25 µM 2-AG, 5% DMSO, 0.5% ACN in a total volume of 200 µL.

human PC3 cells = assay: Lipidomics in PC3 cells; assay type: cell-based; settings: 4h at 37 °C in serum free medium
Description: To test the activity of inventive compound 25 in a human cell line, human PC3 cells (prostate cancer cell line) were used. The protocol for lipodomics in PC3 cells is given below. Before inhibitor treatment, the culture medium was removed and the cells were washed with warm (37 °C) serum free medium (3x). The cells were treated with vehicle (DMSO) or inhibitor for 4h at 37 °C in serum free medium. After 4h of incubation medium was removed and the cells were washed with cold (4°C) DPBS (3x) and subsequently suspended in DPBS and pelleted. The cell pellet metabolome was extracted and by MeOH/CHCl3 extraction and analysed by LCMS/MS of a triple quad mass spectometer (agilent). The concentration of the lipids was determined by comparison with spiked deuterated standards of the lipd species. […] This may indicate that downstream metabolic pathways of 2-AG signaling are also affected and that the biosynthesis of 2-AG is the rate-limiting step.

hDAGL-β = molecular target: T2, hDAGL-β (Homo sapiens, UniProt Q8NCG7); assay: Competitive ABPP with MB064 on membranes of hDAGL-β transfected HEK293 cells; assay type: biochemical; design: FLAG; expressed in transfected cells; host or cells: HEK293, membranes; settings: n=3, read-out: pIC50 of hDAGL-β labeling (converted)
T2 sequence (Q8NCG7 1-672): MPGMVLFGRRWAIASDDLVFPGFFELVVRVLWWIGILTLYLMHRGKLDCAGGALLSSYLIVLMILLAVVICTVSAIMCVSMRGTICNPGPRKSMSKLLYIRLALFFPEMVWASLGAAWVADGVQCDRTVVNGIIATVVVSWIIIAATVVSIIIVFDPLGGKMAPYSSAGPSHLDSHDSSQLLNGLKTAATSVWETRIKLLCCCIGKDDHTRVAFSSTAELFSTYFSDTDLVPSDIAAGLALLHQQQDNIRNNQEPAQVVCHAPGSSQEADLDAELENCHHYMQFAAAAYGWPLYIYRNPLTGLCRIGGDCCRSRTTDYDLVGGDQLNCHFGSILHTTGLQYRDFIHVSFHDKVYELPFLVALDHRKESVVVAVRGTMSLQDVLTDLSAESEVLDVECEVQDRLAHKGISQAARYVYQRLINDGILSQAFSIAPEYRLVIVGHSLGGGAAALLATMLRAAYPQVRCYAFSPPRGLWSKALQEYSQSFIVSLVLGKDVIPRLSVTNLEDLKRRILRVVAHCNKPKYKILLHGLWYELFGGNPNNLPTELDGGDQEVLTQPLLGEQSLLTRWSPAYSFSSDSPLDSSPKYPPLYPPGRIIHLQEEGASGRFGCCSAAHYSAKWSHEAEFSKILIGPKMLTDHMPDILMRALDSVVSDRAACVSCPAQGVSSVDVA
Description: In view of the high homology between DAGL-α and DAGL-β the inventors assesed the activity of compound 25 also on native DAGL-β. To this end, it was tested whether the ABP probe MB064 was also able to label DAGL-β. MB064 was incubated with membranes from mock and hDAGL-β transfected HEK293 cells. MB064 was able to label a protein at the expected molecular weight of DAGL-β, which was not present in the control membranes, or in S443A-hDAGL-β transfected cells, in which the catalytic serine is replaced by alanine using site-directed mutagenesis (Figure 1 F). Thus, the tailor-made probe can also detect DAGL-β.

For `Cc1ccc(-c2cnc3nc(C(=O)CCCCCc4ccccc4)oc3c2)cc1` [Compound 25, 1-(6-(p-Tolyl)oxazolo[4,5-b]pyridin-2-yl)-6-phenylhexan-1-one], the Ki (recombinant human MAGL) was > 10000 nM, the 2-AG levels (human PC3 cells) was “reduced 2-AG levels” and the arachidonic acid levels (human PC3 cells) was “reduced”. For the same molecule, the “substrate levels of DAGL” value (human PC3 cells) was “no change” and the IC50 (hDAGL-β) was 39.8 nM.
